Usually Ki stands for the equilibrium dissociation constant of an inhibitor or competing ligand from its target.

Here are results for 55 compounds from patent publication US20100022521A1, “COMPOUNDS” (Hansa Metallwerke AG, priority 2005, published 2010).

For one assay, the target named is T1, rat mGluR1 (Rattus norvegicus, UniProt P23385).
T1 construct: rat cerebellar membrane preparation was used; from tissue; host or cells: rat cerebellum (membrane preparation)
Kind of assay: MGluR1 receptor binding test ([3H]R214127 displacement). The note with it: rat cerebellar membrane; radioligand [3H]R214127 (3 nM); read-out: mGlu1 Ki. Here is the method: MGluR1 Receptor Binding Test
MGluR1 receptor binding testes were performed according to modified method of Lavreysen et al. (Mol. Pharm., 2003, 63, 1082). Based on the high homology between the human and rat mGluR1 receptors, rat cerebellar membrane preparation was used to determine the binding characteristics of reference compounds and novel compounds to the rat mGluR1. As radioligand [3H]R214127 (3 nM) was used and the nonspecific binding was determined in the presence of 1 μM of R214127.
IC-50 values were determined from displacement curves by nonlinear regression analysis and were converted by equation method of Cheng and Prusoff (Biochem. Pharmacol., 1973, 22, 3099) to Ki values.

Another assay deals with mGluR5 (UniProt P31424). The assay can be described thus: MGluR5 receptor binding test ([3H]-M-MPEP displacement). Also noted: species or system rat. The note with it: radioligand [3H]-M-MPEP (2 nM); species not given; read-out: mGlu5 Ki. Here is the method:
MGluR5 Receptor Binding Tests
Rat cerebro-cortical membrane preparation was used to determine the binding characteristics of reference compounds and novel compounds to the rat mGluR5. The A18 cell line expressing hmGluR5a (purchased from Euroscreen) was used to determine binding characteristics of the chemical compounds to the human mGluR5a receptor. As radioligand [3H]-M-MPEP (2 nM) was used. The nonspecific binding was determined in the presence of 10 μM M-MPEP.

T1 sequence (P23385 19-1199): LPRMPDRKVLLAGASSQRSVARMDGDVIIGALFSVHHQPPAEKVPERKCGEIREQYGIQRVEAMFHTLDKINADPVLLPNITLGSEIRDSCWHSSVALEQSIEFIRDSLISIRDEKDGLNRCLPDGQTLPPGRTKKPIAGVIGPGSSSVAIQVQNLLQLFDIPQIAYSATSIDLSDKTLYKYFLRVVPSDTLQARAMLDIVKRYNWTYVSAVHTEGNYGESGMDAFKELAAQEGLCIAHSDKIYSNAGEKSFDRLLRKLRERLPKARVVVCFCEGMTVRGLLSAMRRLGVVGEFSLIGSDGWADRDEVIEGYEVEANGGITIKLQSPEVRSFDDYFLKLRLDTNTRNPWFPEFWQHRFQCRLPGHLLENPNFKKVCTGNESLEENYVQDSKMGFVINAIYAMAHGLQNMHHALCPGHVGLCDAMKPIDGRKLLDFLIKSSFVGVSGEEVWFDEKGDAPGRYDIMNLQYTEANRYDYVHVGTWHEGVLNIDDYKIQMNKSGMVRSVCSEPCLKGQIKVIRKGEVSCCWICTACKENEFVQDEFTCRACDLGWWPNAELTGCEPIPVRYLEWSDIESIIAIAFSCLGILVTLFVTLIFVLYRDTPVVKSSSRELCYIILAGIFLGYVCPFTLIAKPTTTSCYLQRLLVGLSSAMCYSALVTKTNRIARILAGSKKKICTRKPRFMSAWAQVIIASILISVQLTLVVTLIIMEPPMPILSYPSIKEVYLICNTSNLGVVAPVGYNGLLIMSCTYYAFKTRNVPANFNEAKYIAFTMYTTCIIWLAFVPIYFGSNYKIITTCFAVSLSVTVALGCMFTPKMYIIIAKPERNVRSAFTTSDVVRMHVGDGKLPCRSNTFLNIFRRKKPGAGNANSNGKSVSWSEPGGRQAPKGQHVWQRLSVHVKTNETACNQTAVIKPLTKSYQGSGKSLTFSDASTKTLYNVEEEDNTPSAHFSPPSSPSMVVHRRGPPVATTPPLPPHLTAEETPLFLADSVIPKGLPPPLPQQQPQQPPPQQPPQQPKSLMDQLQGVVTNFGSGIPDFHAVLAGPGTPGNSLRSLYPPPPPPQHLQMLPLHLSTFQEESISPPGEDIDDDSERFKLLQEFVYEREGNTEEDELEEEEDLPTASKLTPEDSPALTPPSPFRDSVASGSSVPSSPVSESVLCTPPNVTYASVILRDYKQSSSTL

Consider `O=S(=O)(c1ccc(Cl)c(Cl)c1)c1sc2ncccc2c1-c1ccc(Cl)cc1` [Compound 80], for which the figures for the inhibition constant (Ki) on rat mGluR1 and on mGluR5 were 500 to 1500 nM and under 500 nM, respectively.
Take `N#Cc1cc(F)cc(S(=O)(=O)c2sc3nc(F)ccc3c2-c2ccc(Cl)cc2)c1` [Compound 90, 2-(3-Cyano-5-fluoro-benzenesulfonyl)-3-(4-chloro-phenyl)-6-fluoro-thieno[2,3-b]pyridine]: the inhibitory constant (Ki) at rat mGluR1 is over 1500 nM; at mGluR5 it was under 500 nM.
On the same counts, the results for `N#Cc1cccc(S(=O)(=O)c2sc3nc(F)ccc3c2-c2ccc(F)cc2)c1` [Compound 75] are over 1500 nM and under 500 nM.
As for `CC1CCN(c2c(S(=O)(=O)c3cccc(C#N)c3)sc3ncccc23)CC1` [Compound 36, 2-(3-Cyano-benzenesulfonyl)-3-(4-methyl-piperidinyl)-thieno[2,3-b]pyridine], the Ki on rat mGluR1 and at mGluR5 was under 500 nM in each case.
`N#Cc1cccc(S(=O)(=O)c2sc3ncccc3c2-c2ccccc2Cl)c1` [Compound 83]: the inhibition constant (Ki) on rat mGluR1 and at mGluR5 was under 500 nM each time.
For the compound `O=S(=O)(c1cccc(C(F)(F)F)c1)c1sc2ncccc2c1-c1ccc(Cl)cc1` [Compound 28], the inhibition constant (Ki) is over 1500 nM on rat mGluR1 and under 500 nM at mGluR5.
With `O=S(=O)(c1cccc(F)c1)c1sc2ncccc2c1-c1ccc(F)cc1` [Compound 78], the inhibitory constant (Ki) on rat mGluR1 was over 1500 nM; on mGluR5 it was under 500 nM.
For the compound `Cc1nc(C)c(S(=O)(=O)c2sc3ncccc3c2-c2ccc(Cl)cc2)s1` [Compound 12], the Ki at rat mGluR1 is over 1500 nM; on mGluR5, 500 to 1500 nM.
Consider `Cc1cccc(-c2c(S(=O)(=O)c3cccc(C#N)c3)sc3ncccc23)c1` [Compound 53], for which the values for the Ki on rat mGluR1 and on mGluR5 were 500 to 1500 nM and under 500 nM, respectively.
Regarding `[O-][S+](c1ccc(Cl)cc1)c1sc2ncccc2c1-c1ccc(Cl)cc1` (stereo not drawn) [Compound 2], the Ki at rat mGluR1 and on mGluR5 was under 500 nM each time.
As to `N#Cc1cccc(S(=O)(=O)c2sc3ncccc3c2-c2ccc(Cl)cc2)c1` [Compound 9], the Ki on rat mGluR1 and at mGluR5 was under 500 nM each time.
For `N#Cc1cccc(S(=O)(=O)c2sc3ncccc3c2-c2cccc(F)c2)c1` [Compound 52], the Ki on rat mGluR1 and on mGluR5 was under 500 nM throughout.
As for `COc1ccc(S(=O)(=O)c2sc3ncccc3c2-c2ccc(Cl)cc2)cc1F` [Compound 91], the Ki was 500 to 1500 nM at rat mGluR1 and under 500 nM at mGluR5.
On to `COc1ccc(S(=O)(=O)c2sc3ncccc3c2-c2ccc(Cl)cc2)cc1` [Compound 48], for which the inhibitory constant (Ki) on rat mGluR1 and on mGluR5 was under 500 nM throughout.
`CNC(=O)Nc1c(S(=O)(=O)c2ccc(Cl)cc2)sc2ncccc12` [Compound 112]: the Ki at mGluR5 was over 1500 nM.
On to `Nc1cnc2sc(S(=O)(=O)c3ccc(Cl)cc3)c(-c3cccc(F)c3)c2c1` [Compound 115, 5-Amino-2-(4-chloro-benzenesulfonyl)-3-(3-fluor-phenyl)-thieno[2,3-b]pyridine], for which the Ki at mGluR5 is under 500 nM.
With `O=S(=O)(c1ccc(Cl)cc1)c1sc2ncccc2c1-c1ccc(F)cc1F` [Compound 130], the Ki at mGluR5 was under 500 nM.
For `CN(C)c1ccc(S(=O)(=O)c2sc3ncccc3c2-c2ccc(Cl)cc2)cc1` [Compound 71], at mGluR5, the inhibition constant (Ki) was under 500 nM.
With `O=S(=O)(c1ccc(Cl)cc1)c1sc2nccc(F)c2c1-c1ccc(Cl)cc1` [Compound 102, 4-Fluor-2-(4-chloro-benzenesulfonyl)-3-(4-chloro-phenyl)-thieno[2,3-b]pyridine], the Ki on mGluR5 was under 500 nM.
On to `O=S(=O)(c1ccc(Cl)cc1)c1sc2ncccc2c1N1CC[S+]([O-])CC1` [Compound 117], for which the inhibitory constant (Ki) on mGluR5 was over 1500 nM.
With `CC(=O)N1CCN(c2c(S(=O)(=O)c3ccc(Cl)cc3)sc3ncccc23)CC1` [Compound 105], the Ki at mGluR5 is over 1500 nM.
On the same count and under the same terms, as for `COc1ccc(S(=O)(=O)c2sc3ncccc3c2-c2ccc(F)cc2)cc1F` [Compound 126], the figure is under 500 nM; as for `CS(=O)(=O)c1ccc(-c2c(S(=O)(=O)c3ccc(Cl)cc3)sc3ncccc23)cc1` [Compound 108], over 1500 nM.
In the case of `CS(=O)(=O)NC1CCN(c2c(S(=O)(=O)c3ccc(Cl)cc3)sc3ncccc23)CC1` [Compound 116], the inhibitory constant (Ki) on mGluR5 was over 1500 nM.
Turning to `O=S(=O)(c1ccc(Cl)cc1)c1sc2ncccc2c1N1CCC(F)(F)CC1` [Compound 134], at mGluR5, the inhibitory constant (Ki) is under 500 nM.
Same read-out and setting: as for `O=S(=O)(c1ccc(Cl)cc1)c1sc2ncc(F)cc2c1-c1cccc(F)c1` [Compound 137, 2-(4-Chloro-benzenesulfonyl)-3-(3-fluoro-phenyl)-5-fluoro-thieno[2,3-b]pyridine], the figure is under 500 nM; as for `CC1CCN(c2c(S(=O)(=O)c3cc(F)cc(C#N)c3)sc3ncccc23)CC1` [Compound 96], under 500 nM; as for `O=S(=O)(c1ccc(Cl)cc1)c1sc2ncccc2c1N1CCC(CO)CC1` [Compound 140], under 500 nM.
Regarding `Cc1cc(C)c(S(=O)(=O)c2sc3ncccc3c2-c2ccc(Cl)cc2)c(C)c1` [Compound 56], the Ki at mGluR5 is over 1500 nM.
The same measure, in the same setting: in the case of `COc1ccc(-c2c(S(=O)(=O)c3cccc(C#N)c3)sc3ncccc23)cc1` [Compound 84] it was under 500 nM.
For the compound `N#Cc1cc(F)cc(S(=O)(=O)c2sc3nc(F)ccc3c2-c2cccc(F)c2)c1` [Compound 139], the Ki at mGluR5 was under 500 nM.
With `CC1CCN(c2cc(C#N)cc(S(=O)(=O)c3sc4ncccc4c3N3CCC(C)CC3)c2)CC1` [Compound 95], the inhibition constant (Ki) on mGluR5 was in the range of 500 to 1500 nM.
For `Cc1cc(C)cc(S(=O)(=O)c2sc3ncccc3c2-c2ccc(Cl)cc2)c1` [Compound 44], the Ki at mGluR5 is under 500 nM.
On to `O=S(=O)(c1cc(F)cc(C(F)(F)F)c1)c1sc2ncccc2c1-c1ccc(Cl)cc1` [Compound 34], for which the inhibition constant (Ki) on mGluR5 was under 500 nM.
Turning to `O=S(=O)(c1ccc(Cl)cc1)c1sc2nccc(Cl)c2c1-c1ccc(Cl)cc1` [Compound 57, 4-Chloro-2-(4-chloro-benzenesulfonyl)-3-(4-chloro-phenyl)-thieno[2,3-b]pyridine], the Ki at mGluR5 was under 500 nM.
As to `O=S(=O)(c1ccc(Cl)cc1)c1sc2ncccc2c1N1CCCC(O)C1` (stereo not drawn) [Compound 98], the inhibition constant (Ki) at mGluR5 is under 500 nM.
Same read-out and setting: in the case of `O=S(=O)(c1ccc(Cl)cc1)c1sc2nccc(O)c2c1-c1ccc(Cl)cc1` [Compound 103, 2-(4-chloro-benzenesulfonyl)-3-(4-chloro-phenyl)-4-hydroxy-thieno[2,3-b]pyridine] it was 500 to 1500 nM.
As for `O=S(=O)(c1ccc(Cl)cc1)c1sc2ncccc2c1-c1cccc(F)c1` [Compound 109], at mGluR5, the Ki was under 500 nM.
Regarding `O=S(=O)(c1ccc(C(F)(F)F)cc1)c1sc2ncccc2c1-c1ccc(Cl)cc1` [Compound 68], the inhibition constant Ki on mGluR5 was under 500 nM.
With `COc1ccnc2sc(S(=O)(=O)c3ccc(Cl)cc3)c(-c3ccc(Cl)cc3)c12` [Compound 101, 2-(4-chloro-benzenesulfonyl)-3-(4-chloro-phenyl)-4-methoxy-thieno[2,3-b]pyridine], the inhibition constant Ki on mGluR5 is under 500 nM.
On to `CC(C)c1ccc(S(=O)(=O)c2sc3ncccc3c2-c2ccc(Cl)cc2)cc1` [Compound 88], for which, at mGluR5, the inhibitory constant (Ki) is under 500 nM.
Still for that read-out and setting: in the case of `COc1cccc(S(=O)(=O)c2sc3ncccc3c2-c2ccc(Cl)cc2)c1` [Compound 70] it was under 500 nM.
On the same count and under the same terms, in the case of `N#Cc1ccc(S(=O)(=O)c2sc3ncccc3c2-c2cccc(Cl)c2)cc1` [Compound 42] it was under 500 nM.
In the case of `Cc1ccc(-c2c(S(=O)(=O)c3cccc(Cl)c3)sc3ncccc23)cc1` [Compound 37], on mGluR5, the Ki was under 500 nM.
Regarding `CS(=O)(=O)Nc1cnc2sc(S(=O)(=O)c3ccc(Cl)cc3)c(-c3ccc(Cl)cc3)c2c1` [Compound 85, N-[2-(4-Chloro-benzenesulfonyl)-3-(4-chloro-phenyl)-thieno[2,3-b]pyridin-5-yl]-methanesulfonamide], at mGluR5, the Ki was under 500 nM.
On the same count and under the same terms, as for `N#Cc1cccc(S(=O)(=O)c2sc3ncccc3c2-c2ccncc2)c1` [Compound 73], the figure is under 500 nM; as for `N#Cc1cc(F)cc(S(=O)(=O)c2sc3ncccc3c2-c2cccc(Cl)c2)c1` [Compound 136], under 500 nM; as for `COc1ccc(S(=O)(=O)c2sc3ncccc3c2-c2cccc(Cl)c2)cc1F` [Compound 128], under 500 nM.
With `CN(C)c1ccc2c(-c3ccc(Cl)cc3)c(S(=O)(=O)c3ccc(Cl)cc3)sc2n1` [Compound 47, 2-(4-Chloro-benzenesulfonyl)-3-(4-chloro-phenyl)-6-dimethylamino-thieno[2,3-b]pyridine], on mGluR5, the inhibitory constant (Ki) fell in the range of 500 to 1500 nM.
Turning to `O=S(=O)(c1ccc(Br)s1)c1sc2ncccc2c1-c1ccc(Cl)cc1` [Compound 45], the Ki at mGluR5 was under 500 nM.
`O=S(=O)(c1ccc(Cl)cc1)c1sc2nc(F)ccc2c1-c1ccc(Cl)cc1` [Compound 58]: the Ki on mGluR5 is under 500 nM.
On to `O=S(=O)(c1ccc(Cl)cc1)c1sc2ncccc2c1-n1cncn1` [Compound 133], for which the Ki on mGluR5 is 500 to 1500 nM.
Consider `CN1CCN(C(=O)Nc2c(S(=O)(=O)c3ccc(Cl)cc3)sc3ncccc23)CC1` [Compound 122], for which the inhibition constant (Ki) at mGluR5 was over 1500 nM.
As to `O=S(=O)(c1cccc(F)c1)c1sc2nc(F)ccc2c1-c1ccc(Cl)cc1` [Compound 77], the Ki on mGluR5 was under 500 nM.
Turning to `O=S(=O)(c1cccc(F)c1)c1sc2ncccc2c1-c1ccc(Cl)cc1` [Compound 31], the Ki at mGluR5 is under 500 nM.
